Test results from patent US20250320203A1, “4-(3H-PYRAZOLO[4,3-F]QUINOLIN-7-YL)-N-(2-(DIMETHYLAMINO)ETHYL)BENZAMIDE- OR HYDROXAMIC ACID COMPOUNDS, COMPOSITIONS, AND METHODS OF USE” (Purdue Research Foundation, priority 2022, published 2025).
pKd: −log10 of the molar value.

Assays:
haspin = target: T1, haspin (Homo sapiens, UniProt Q8TF76); assay: Haspin binding Kd (Eurofins); design: purchased Eurofins (contract research service)
T1 sequence (Q8TF76 1-798): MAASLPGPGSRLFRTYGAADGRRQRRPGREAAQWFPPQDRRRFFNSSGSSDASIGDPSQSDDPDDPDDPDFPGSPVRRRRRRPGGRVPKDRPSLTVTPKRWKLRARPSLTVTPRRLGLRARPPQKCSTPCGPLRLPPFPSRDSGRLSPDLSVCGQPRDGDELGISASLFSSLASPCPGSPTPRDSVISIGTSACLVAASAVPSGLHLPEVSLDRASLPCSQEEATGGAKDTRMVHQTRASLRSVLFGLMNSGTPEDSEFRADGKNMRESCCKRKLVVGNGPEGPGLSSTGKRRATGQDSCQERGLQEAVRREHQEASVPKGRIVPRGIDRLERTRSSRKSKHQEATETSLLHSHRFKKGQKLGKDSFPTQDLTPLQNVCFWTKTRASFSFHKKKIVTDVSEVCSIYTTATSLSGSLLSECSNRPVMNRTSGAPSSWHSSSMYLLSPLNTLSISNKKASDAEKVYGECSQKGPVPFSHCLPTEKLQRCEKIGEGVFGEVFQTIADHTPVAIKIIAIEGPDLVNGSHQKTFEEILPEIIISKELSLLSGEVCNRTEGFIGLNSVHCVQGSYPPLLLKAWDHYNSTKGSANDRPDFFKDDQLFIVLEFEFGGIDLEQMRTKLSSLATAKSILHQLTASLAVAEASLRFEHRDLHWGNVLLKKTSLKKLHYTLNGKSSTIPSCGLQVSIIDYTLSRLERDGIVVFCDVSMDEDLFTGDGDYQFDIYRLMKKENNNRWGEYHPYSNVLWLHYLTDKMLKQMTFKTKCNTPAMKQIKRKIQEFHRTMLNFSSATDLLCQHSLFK

phosphorylated FLT3 = assay: Western blot, FLT3 target engagement in Molm-14 cells; format: cell-based, human; details: Molm-14 cells treated for 2 hours
Procedure: (§1) Acute myeloid leukemia cells (Molm-14) were incubated with various concentrations of compound as specified. Cells were collected and lysed, and protein concentrations were quantified relative to BSA standards. After protein denaturation, proteins were separated via SDS-PAGE electrophoresis and transferred to NC membranes. After blocking, overnight incubation with specific primary antibodies, and room temperature incubation for 2 hours with peroxidase-conjugated secondary antibodies, peroxidase activity was detected with SuperSignal West Pico reagents (Thermo Scientific) using a CCD camera LAS-4000 (Fujifilm). Bands were normalized using housekeeping gene, Actin. Values reported represent the means of triplicates and error bars represent SD. All specific antibodies were purchased from Cell Signaling.
Additionally, FLT3 target engagement in Molm-14 cells was evaluated to confirm the FLT3 inhibition seen in the preliminary kinase screen of Example 4 (Table 1). Cells were treated for 2 hours, harvested, and subsequently analyzed.

Molm 14-ITD-D835Y = assay: Cell viability GI50, Molm 14-ITD-D835Y; format: cell-based; details: Homo sapiens; 72 hours
Procedure: More specifically, cells were cultured to confluence in RPMI medium supplemented with 10% fetal bovine serum and 1× Penicillin-Streptomycin (Gibco™). Cells were plated at 5,000 cells/well in 96 well plates. After 24-hour incubation at 37° C. in a 5% CO2 incubator, compounds diluted in the same media were added to the indicated final concentration and allowed to incubate at 37° C. in a 5% CO2 incubator for 72 hours. Viability was determined using CellTiter-Blue® Cell Viability Assay (Promega, Madison, WI) with absorbance readings at 570 nm performed on a Cytation™ 5 Cell Imaging Multi-Mode Reader (BioTek) 3 hours after addition. Appropriate vehicle and cell-free controls were included. GI50 readings were confirmed by two scientists on two separate days.
Scholl et al. (2020), supra. Accordingly, Compound HSK205 was evaluated against Molm-14 cell lines that harbor resistant mutations commonly found in the clinic, FLT3-ITD-D835Y and F691L (FIG. 15).

[1] = tested on: histone H3 (Thr3) phosphorylation by haspin; assay: Western blot, histone H3 (Thr3) phosphorylation by haspin in Molm-14 cells; format: cell-based, human; details: 24 hours, HSK205 5, 20 or 100 nM, gilteritinib 100 nM
Procedure: Whether Compound HSK205 does indeed inhibit haspin in AML cells was then evaluated, and immunoblotting was performed to confirm inhibition of histone H3 (Thr3)phosphorylation by haspin (FIG. 13A). […] The samples were subsequently analyzed for the phosphorylation of histone H3 (Thr3).
as §1

- pKd (haspin): 9.26
- GI50 (Molm 14-ITD-D835Y): 4.3 nM
SMILES: Cc1c[nH]c(CNC(=O)c2ccc(-c3nc4ccc5[nH]ncc5c4c4c3CCCC4)cc2)n1 [Compound HSK205]
- phosphorylated FLT3 (phosphorylated FLT3): reduction of phosphorylated FLT3
- phosphorylation of histone H3 (Thr3) [1]: effective in reducing phosphyorlation of histone H3 (Thr3)
